Experimental data reported in patent US20210038607A1, “OXADIAZOLYLTHIOPHENE DERIVATIVES USEFUL AS HISTONE DEACETYLASE INHIBITORS” (Karus Therapeutics Limited, priority 2018, published 2021).

What was measured:
[1] = molecular target: T1, Complex of human HDAC3 and human NCOR2 (Homo sapiens, UniProt O15379); test: HDAC3 biochemical assay, AMC-labeled peptide substrate; details: read-out: HDAC Isoform IC50 (nM) 3
T1 construct: full length with C-terminal His tag, MW=49.7 kDa; His (C); host or cells: baculovirus expression system (co-expressed)
Procedure: (§1) Activity against all zinc-dependent HDACs 1 to 11 was assessed by using an acetylated AMC-labeled peptide substrate. The substrate RHKK(Ac)AMC was used for HDAC1, HDAC2, HDAC3, HDAC6 and HDAC10; the substrate used for HDAC8 was RHK(Ac)K(Ac)AMC. Activity against the class IIa HDACs (HDAC4, 5, 7, 9) and HDAC11 was determined using a class IIa-specific substrate, BOC-Lys(trifluoroacetyl)-AMC (“Trifluoroacetyl Lysine”; see Lahm et al, 2007, PNAS, 104, 17335-17340). All assays were based on the AMC-labeled substrate and developer combination.
(§2) The protocol involved a two-step reaction: first, the substrate with the acetylated lysine side chain is incubated with a sample containing HDAC activity, to produce the deacetylated products, which are then digested in the second step by the addition of developer to produce the fluorescent signal proportional to the amount of deacetylated substrates.
Complex of human HDAC3 (GenBank Accession No. NM_003883), full length with C-terminal His tag, MW=49.7 kDa, and human NCOR2 (amino acid 395-489) (GenBank Accession No. NM_006312), N-terminal GST tag, MW=37.6 kDa, co-expressed in baculovirus expression system.
(§3) Assay Buffer: 50 mM Tris-HCl, pH8.0, 137 mM NaCl, 2.7 mM KCl, 1 mM MgC2. Before use, 1 mg/mL BSA and DMSO are added.
HDAC3: 0.1 ng/ul HDAC3 and 50 μM HDAC substrate are in the reaction buffer with 1% DMSO final. Incubate for 1 hour at 30° C.
(§4) Stage 1: Deacetylation of substrate by incubation of HDAC enzymes with compounds
(§5) Stage 2: Development by addition of Developer to digest the deacetylated substrate, and generate the fluorescent colour; Detection: 360/460 Ex/Em

[2] = molecular target: T2, Human HDAC1 (Homo sapiens, UniProt Q13547); test: HDAC1 biochemical assay, AMC-labeled peptide substrate; details: read-out: HDAC Isoform IC50 (nM) 1
T2 construct: full length with C-terminal His-tag and C-terminal FLAG-tag; His (C); FLAG (C); host or cells: baculovirus expression system
In short: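 Baculovirus-expressed full-length human HDAC1 with His and FLAG tags, 0.3 ng/ul, incubated 1 h at 30° C with compound and 50 μM RHKK(Ac)AMC in Tris pH 8.0 buffer with BSA and 1% DMSO. Developer then releases AMC from deacetylated substrate; fluorescence read at 360/460 nm.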

[3] = molecular target: T3, Human HDAC5 (Homo sapiens, UniProt Q9UQL6); test: HDAC5 biochemical assay, class IIa-specific substrate; details: read-out: HDAC Isoform IC50 (nM) 5
T3 construct: full length with C-terminal His tag, MW=51.1 kDa; His (C); host or cells: baculovirus expression system
In short: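 Full-length C-terminal His-tagged HDAC5 from baculovirus (0.05 ng/ul) incubated 30 min at room temperature with 50 μM Boc-Lys(trifluoroacetyl)-AMC and compound, Tris pH 8.0 buffer with BSA, 1% DMSO. Developer then releases AMC; fluorescence 360/460 nm.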

[4] = molecular target: T4, Human HDAC2 (Homo sapiens, UniProt Q92769); test: HDAC2 biochemical assay, AMC-labeled peptide substrate; details: read-out: HDAC Isoform IC50 (nM) 2
T4 construct: full length with C-terminal GST-tag; GST (C); host or cells: baculovirus expression system
Procedure: as §1, §2
Human HDAC2 (GenBank Accession No. NM_001527), full length with C-terminal GST-tag, MW=82.9 kDa, expressed inbaculovirus expression system.
as §3
HDAC2: 0.07 ng/ul HDAC2 and 50 μM HDAC substrate are in the reaction buffer with 1% DMSO final. Incubate for 1 hour at 30° C.
as §4, §5

[5] = molecular target: T5, Human HDAC10 (Homo sapiens, UniProt Q969S8); test: HDAC10 biochemical assay, AMC-labeled peptide substrate; details: read-out: HDAC Isoform IC50 (nM) 10
T5 construct: Human HDAC10 (a.a. 1-481); GST (N); His (C); host or cells: baculovirus expression system
T5 sequence (Q969S8 1-481): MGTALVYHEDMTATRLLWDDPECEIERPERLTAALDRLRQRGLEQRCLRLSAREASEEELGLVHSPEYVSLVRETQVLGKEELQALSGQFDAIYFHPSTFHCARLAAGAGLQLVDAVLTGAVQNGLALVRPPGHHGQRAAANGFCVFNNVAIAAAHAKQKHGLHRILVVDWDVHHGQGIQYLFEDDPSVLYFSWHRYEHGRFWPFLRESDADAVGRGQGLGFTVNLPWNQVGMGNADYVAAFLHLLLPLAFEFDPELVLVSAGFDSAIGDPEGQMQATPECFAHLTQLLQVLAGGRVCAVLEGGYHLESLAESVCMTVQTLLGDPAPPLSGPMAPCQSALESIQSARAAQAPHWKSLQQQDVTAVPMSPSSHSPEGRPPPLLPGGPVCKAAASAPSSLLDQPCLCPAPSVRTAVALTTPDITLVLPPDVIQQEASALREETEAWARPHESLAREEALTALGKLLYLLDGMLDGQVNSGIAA
Procedure: as §1, §2
Human HDAC10 (a.a. 1-481), GenBank Accession No. NM_032019 with N-terminal GST tag and C-terminal His tag, MW=78 kDa, expressed in baculovirus expression system.
as §3
HDAC10: 12 ng/ul HDAC10 and 50 μM HDAC substrate are in the reaction buffer with 1% DMSO final. Incubate for 2 hours at 30° C.
as §4, §5

T2 sequence (Q13547 whole entry, canonical isoform): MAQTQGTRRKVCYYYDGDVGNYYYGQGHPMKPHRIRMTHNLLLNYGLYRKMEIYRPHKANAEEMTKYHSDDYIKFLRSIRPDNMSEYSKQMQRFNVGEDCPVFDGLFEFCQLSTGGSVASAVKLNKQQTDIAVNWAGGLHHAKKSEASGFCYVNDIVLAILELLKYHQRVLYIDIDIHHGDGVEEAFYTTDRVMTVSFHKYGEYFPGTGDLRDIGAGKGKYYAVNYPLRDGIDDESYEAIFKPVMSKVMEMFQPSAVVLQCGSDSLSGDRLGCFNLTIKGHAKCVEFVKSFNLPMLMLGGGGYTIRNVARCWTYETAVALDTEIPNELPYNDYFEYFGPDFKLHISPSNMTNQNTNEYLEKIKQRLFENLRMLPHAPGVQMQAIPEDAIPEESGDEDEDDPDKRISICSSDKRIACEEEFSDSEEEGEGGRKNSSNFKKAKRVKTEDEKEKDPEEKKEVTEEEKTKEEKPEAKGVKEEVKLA
T1 sequence (O15379 whole entry, canonical isoform): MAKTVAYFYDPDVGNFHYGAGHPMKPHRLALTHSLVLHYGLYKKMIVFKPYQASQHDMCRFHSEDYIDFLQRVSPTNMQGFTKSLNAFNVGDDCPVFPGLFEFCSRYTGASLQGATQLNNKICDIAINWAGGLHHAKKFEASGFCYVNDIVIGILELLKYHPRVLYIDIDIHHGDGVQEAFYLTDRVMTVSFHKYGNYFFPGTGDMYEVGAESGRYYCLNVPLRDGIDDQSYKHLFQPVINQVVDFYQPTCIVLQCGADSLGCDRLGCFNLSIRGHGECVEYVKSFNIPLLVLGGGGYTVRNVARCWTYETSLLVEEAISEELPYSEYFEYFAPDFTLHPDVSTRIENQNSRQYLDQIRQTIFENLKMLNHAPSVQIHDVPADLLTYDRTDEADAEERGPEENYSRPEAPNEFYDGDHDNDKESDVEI
T1 sequence (Q9Y618 395-489 partner limits assumed): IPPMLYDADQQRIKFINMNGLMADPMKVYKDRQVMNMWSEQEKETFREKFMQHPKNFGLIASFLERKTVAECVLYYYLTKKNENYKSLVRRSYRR
T4 sequence (Q92769 whole entry, canonical isoform): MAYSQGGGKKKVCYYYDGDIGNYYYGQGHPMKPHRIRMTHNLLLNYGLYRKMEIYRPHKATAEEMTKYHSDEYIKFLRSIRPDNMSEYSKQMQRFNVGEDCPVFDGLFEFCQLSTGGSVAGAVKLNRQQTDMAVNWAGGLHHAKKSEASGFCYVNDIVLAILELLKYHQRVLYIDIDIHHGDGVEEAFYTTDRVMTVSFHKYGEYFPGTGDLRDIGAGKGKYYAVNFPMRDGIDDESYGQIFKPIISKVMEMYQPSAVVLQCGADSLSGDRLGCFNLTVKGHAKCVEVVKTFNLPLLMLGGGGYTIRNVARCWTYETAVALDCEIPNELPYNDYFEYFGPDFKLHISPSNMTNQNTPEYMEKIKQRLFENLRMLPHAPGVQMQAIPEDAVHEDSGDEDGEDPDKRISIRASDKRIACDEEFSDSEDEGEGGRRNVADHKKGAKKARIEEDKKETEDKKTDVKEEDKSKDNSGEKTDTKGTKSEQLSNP
T3 sequence (Q9UQL6 656-1122 limits assumed): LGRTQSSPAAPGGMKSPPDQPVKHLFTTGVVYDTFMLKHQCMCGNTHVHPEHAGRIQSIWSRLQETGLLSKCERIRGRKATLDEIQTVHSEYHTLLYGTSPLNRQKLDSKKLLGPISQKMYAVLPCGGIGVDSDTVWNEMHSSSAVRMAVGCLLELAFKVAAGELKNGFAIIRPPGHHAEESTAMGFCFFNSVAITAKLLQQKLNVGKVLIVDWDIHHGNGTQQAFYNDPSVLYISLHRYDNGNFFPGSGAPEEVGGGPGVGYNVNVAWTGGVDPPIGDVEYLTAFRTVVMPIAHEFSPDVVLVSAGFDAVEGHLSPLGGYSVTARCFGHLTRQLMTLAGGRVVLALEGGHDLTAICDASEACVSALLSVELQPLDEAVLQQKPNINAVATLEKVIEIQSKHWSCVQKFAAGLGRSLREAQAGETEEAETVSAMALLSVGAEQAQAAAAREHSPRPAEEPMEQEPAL

O=C(c1ccc(N(Cc2ccc(-c3noc(C(F)(F)F)n3)s2)c2cnccn2)nn1)N1CCC2(COC2)C1 [Example FJ, 6-{2-Oxa-6-azaspiro[3.4]octane-6-carbonyl}-N-(pyrazin-2-yl)-N-({5-[5-(trifluoromethyl)-1,2,4-oxadiazol-3-yl]thiophen-2-yl}methyl)pyridazin-3-amine]
IC50 [1]: ≤ 10000 nM
IC50 [2]: ≤ 10000 nM
IC50 [3]: ≤ 500 nM
IC50 [4]: > 10000 nM
IC50 [5]: > 10000 nM

COc1cncc(N(Cc2ccc(-c3noc(C(F)(F)F)n3)s2)c2cnccn2)n1 [Example BQ, 6-Methoxy-N-(pyrazin-2-yl)-N-({5-[5-(trifluoromethyl)-1,2,4-oxadiazol-3-yl]thiophen-2-yl}methyl)pyrazin-2-amine]
IC50 [1]: > 10000 nM
IC50 [2]: > 10000 nM
IC50 [3]: ≤ 1000 nM
IC50 [4]: > 10000 nM
IC50 [5]: > 10000 nM

O=C(O)c1ccc(N(Cc2sc(-c3noc(C(F)(F)F)n3)cc2F)c2cnccn2)nn1 [Example EZ, 6-[({3-Fluoro-5-[5-(trifluoromethyl)-1,2,4-oxadiazol-3-yl]thiophen-2-yl}methyl)(pyrazin-2-yl)amino]pyridazine-3-carboxylic acid]
IC50 [1]: > 10000 nM
IC50 [2]: > 10000 nM
IC50 [3]: ≤ 10000 nM
IC50 [4]: > 10000 nM
IC50 [5]: > 10000 nM

FC(F)(F)c1nc(-c2ccc(CN(c3cnccn3)c3cc(N4CCOCC4)cnn3)s2)no1 [Example FP, 5-(Morpholin-4-yl)-N-(pyrazin-2-yl)-N-({5-[5-(trifluoromethyl)-1,2,4-oxadiazol-3-yl]thiophen-2-yl}methyl)pyridazin-3-amine]
IC50 [1]: > 10000 nM
IC50 [2]: > 10000 nM
IC50 [3]: ≤ 500 nM
IC50 [4]: > 10000 nM
IC50 [5]: > 10000 nM

FC(F)(F)c1nc(-c2ccc(CN(c3cnccn3)c3cc(CN4CCOCC4)ccn3)s2)no1 [Example GI, N-{4-[(Morpholin-4-yl)methyl]pyridin-2-yl}-N-({5-[5-(trifluoromethyl)-1,2,4-oxadiazol-3-yl]thiophen-2-yl}methyl)pyrazin-2-amine]
IC50 [1]: > 10000 nM
IC50 [2]: > 10000 nM
IC50 [3]: ≤ 10000 nM
IC50 [4]: > 10000 nM
IC50 [5]: > 10000 nM

N#Cc1cnnc(N(Cc2ccc(-c3noc(C(F)(F)F)n3)s2)c2cnccn2)c1 [Example EE, 6-[(Pyrazin-2-yl)({5-[5-(trifluoromethyl)-1,2,4-oxadiazol-3-yl]thiophen-2-yl}methyl)amino]pyridazine-4-carbonitrile]
IC50 [1]: > 10000 nM
IC50 [2]: > 10000 nM
IC50 [3]: ≤ 1000 nM
IC50 [4]: > 10000 nM
IC50 [5]: > 10000 nM

O=C(c1ccc(N(Cc2ccc(-c3noc(C(F)(F)F)n3)s2)c2cnccn2)nn1)N1CCOCC1 [Example DS, 6-(Morpholine-4-carbonyl)-N-(pyrazin-2-yl)-N-({5-[5-(trifluoromethyl)-1,2,4-oxadiazol-3-yl]thiophen-2-yl}methyl)pyridazin-3-amine]
IC50 [1]: ≤ 10000 nM
IC50 [2]: > 10000 nM
IC50 [3]: ≤ 500 nM
IC50 [4]: > 10000 nM
IC50 [5]: > 10000 nM

O=C(O)c1cnnc(N(Cc2ccc(-c3noc(C(F)(F)F)n3)s2)c2cc(C(F)(F)F)cnn2)c1 [Example ES, 6-[({5-[5-(Trifluoromethyl)-1,2,4-oxadiazol-3-yl]thiophen-2-yl}methyl)[5-(trifluoromethyl)pyridazin-3-yl]amino]pyridazine-4-carboxylicacid]
IC50 [1]: > 10000 nM
IC50 [2]: > 10000 nM
IC50 [3]: ≤ 10000 nM
IC50 [4]: > 10000 nM
IC50 [5]: > 10000 nM

CC(C)OC1CN(C(=O)c2cnnc(N(Cc3ccc(-c4noc(C(F)(F)F)n4)s3)c3cnccn3)c2)C1 [Example GC, 5-[3-(Propan-2-yloxy)azetidine-1-carbonyl]-N-(pyrazin-2-yl)-N-({5-[5-(trifluoromethyl)-1,2,4-oxadiazol-3-yl]thiophen-2-yl}methyl)pyridazin-3-amine]
IC50 [1]: > 10000 nM
IC50 [2]: > 10000 nM
IC50 [3]: ≤ 500 nM
IC50 [4]: > 10000 nM
IC50 [5]: > 10000 nM

Cc1cnnc(N(Cc2ccc(-c3noc(C(F)(F)F)n3)s2)c2cnccn2)c1 [Example GN, 5-Methyl-N-(pyrazin-2-yl)-N-({5-[5-(trifluoromethyl)-1,2,4-oxadiazol-3-yl]thiophen-2-yl}methyl)pyridazin-3-amine]
IC50 [1]: > 10000 nM
IC50 [2]: > 10000 nM
IC50 [3]: ≤ 1000 nM
IC50 [4]: > 10000 nM
IC50 [5]: > 10000 nM

O=C(c1cnnc(N(Cc2ccc(-c3noc(C(F)(F)F)n3)s2)c2cnccn2)c1)N1CC(C(F)F)C1 [Example GK, 5-[3-(Difluoromethyl)azetidine-1-carbonyl]-N-(pyrazin-2-yl)-N-({5-[5-(trifluoromethyl)-1,2,4-oxadiazol-3-yl]thiophen-2-yl}methyl)pyridazin-3-amine]
IC50 [1]: ≤ 10000 nM
IC50 [2]: ≤ 10000 nM
IC50 [3]: ≤ 1000 nM
IC50 [4]: > 10000 nM
IC50 [5]: > 10000 nM

CNC(=O)c1ccc(N(Cc2ccc(-c3noc(C(F)(F)F)n3)s2)c2cnccn2)nn1 [Example FC, N-Methyl-6-[(pyrazin-2-yl)({5-[5-(trifluoromethyl)-1,2,4-oxadiazol-3-yl]thiophen-2-yl}methyl)amino]pyridazine-3-carboxamide]
IC50 [1]: ≤ 10000 nM
IC50 [2]: ≤ 10000 nM
IC50 [3]: ≤ 500 nM
IC50 [4]: > 10000 nM
IC50 [5]: > 10000 nM

CN(C(=O)c1cnnc(N(Cc2ccc(-c3noc(C(F)(F)F)n3)s2)c2cnccn2)c1)S(C)(=O)=O [Example GE, N-Methanesulfonyl-N-methyl-6-[(pyrazin-2-yl)({5-[5-(trifluoromethyl)-1,2,4-oxadiazol-3-yl]thiophen-2-yl}methyl)amino]pyridazine-4-carboxamide]
IC50 [1]: > 10000 nM
IC50 [2]: > 10000 nM
IC50 [3]: ≤ 1000 nM
IC50 [4]: > 10000 nM
IC50 [5]: > 10000 nM

FC(F)(F)c1nc(-c2ccc(CN(c3cnccn3)c3cnc(N4CCOCC4)cn3)s2)no1 [Example BM, 5-(Morpholin-4-yl)-N-(pyrazin-2-yl)-N-({5-[5-(trifluoromethyl)-1,2,4-oxadiazol-3-yl]thiophen-2-yl}methyl)pyrazin-2-amine]
IC50 [1]: ≤ 10000 nM
IC50 [2]: ≤ 10000 nM
IC50 [3]: ≤ 1000 nM
IC50 [4]: > 10000 nM
IC50 [5]: > 10000 nM

CN(C)C1CN(C(=O)c2cnnc(N(Cc3ccc(-c4noc(C(F)(F)F)n4)s3)c3cnccn3)c2)C1 [Example FX, 5-[3-(Dimethylamino)azetidine-1-carbonyl]-N-(pyrazin-2-yl)-N-({5-[5-(trifluoromethyl)-1,2,4-oxadiazol-3-yl]thiophen-2-yl}methyl)pyridazin-3-amine]
IC50 [1]: > 10000 nM
IC50 [2]: > 10000 nM
IC50 [3]: ≤ 10000 nM
IC50 [4]: > 10000 nM
IC50 [5]: > 10000 nM
